Assays:
CDK2/cyclin A2 = biological target: T1, CDK2/cyclin A2 (Homo sapiens, UniProt P24941); test: Human CDK2/cyclin A2 inhibitory activity (QS S Assist CDK2/Cyclin A2_FP Kit, IMAP fluorescent polarization); format: biochemical; details: read-out: CDK2 Activity symbol
T1 construct: purchased Carna Biosciences, Inc. QS S Assist CDK2/Cyclin A2_FP Kit
In short: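 Kit CDK2/cyclin A2 (2.5 ng/well) was reacted with kit ATP/substrate/metal in 20 mM HEPES pH 7.4, 0.01% Tween 20 and 2 mM DTT for 60 min at room temperature. IMAP binding reagent was added for 30 min, then fluorescence polarization was read at 485/535 nm. IC50 came from dose-response fitting of percent inhibition.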

CDK4/cyclin D3 = biological target: T2, CDK4/cyclin D3 (Homo sapiens, UniProt P11802); test: Human CDK4/cyclin D3 inhibitory activity (QS S Assist CDK4/Cyclin D3_FP Kit, IMAP fluorescent polarization); format: biochemical; details: read-out: CDK4 Activity symbol
T2 construct: purchased Carna Biosciences, Inc. QS S Assist CDK4/Cyclin D3_FP Kit
In short: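 Kinase reactions used kit CDK4/cyclin D3 at 12.5–25 ng/well with the kit ATP/substrate/metal mix in 20 mM HEPES (pH 7.4), 0.01% Tween20 and 2 mM DTT, run 45 min at room temperature. Phosphorylation was detected by IMAP fluorescence polarization (ex 485/em 535 nm) after 30 min binding in the dark. IC50 was fitted from percent inhibition against DMSO controls with and without enzyme.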

T2 sequence (P11802 whole entry): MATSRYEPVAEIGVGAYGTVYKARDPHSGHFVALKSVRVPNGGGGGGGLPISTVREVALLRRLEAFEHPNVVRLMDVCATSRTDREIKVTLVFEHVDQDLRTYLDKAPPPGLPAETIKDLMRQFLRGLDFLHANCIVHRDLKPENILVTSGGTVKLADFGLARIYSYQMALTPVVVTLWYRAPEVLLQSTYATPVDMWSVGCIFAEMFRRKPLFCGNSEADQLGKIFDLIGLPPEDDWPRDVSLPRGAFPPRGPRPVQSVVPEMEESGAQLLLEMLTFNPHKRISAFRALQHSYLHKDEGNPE
T2 sequence (P30281 whole entry partner): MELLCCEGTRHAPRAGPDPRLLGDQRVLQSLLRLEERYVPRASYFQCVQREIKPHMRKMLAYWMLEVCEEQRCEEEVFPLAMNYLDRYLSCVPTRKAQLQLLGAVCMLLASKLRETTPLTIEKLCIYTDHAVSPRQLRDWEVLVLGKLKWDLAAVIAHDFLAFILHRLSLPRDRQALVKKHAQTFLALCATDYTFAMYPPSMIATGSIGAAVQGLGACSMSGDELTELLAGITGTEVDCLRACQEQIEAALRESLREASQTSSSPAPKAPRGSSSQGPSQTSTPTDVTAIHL

Structure (SMILES)	IC50 (CDK2/cyclin A2)	IC50 (CDK4/cyclin D3)
C[C@@H](O)c1cc2cnc(Nc3ccc4c(n3)CCN(C(=O)[C@H]3CCN(C)C3)C4)nc2c(N2C3CCC2CC3)n1 [Compound 225]	≥ 100 nM	< 10 nM
C[C@@H](O)c1cc2cnc(Nc3ccc(CN4CCN(C)C[C@@H]4C)cn3)nc2c(N2C3CCC2CC3)n1 [Compound 187]	≥ 100 nM	< 10 nM
CC(O)c1cc2cnc(Nc3ccc4c(n3)CCN(C(=O)C3CCCCN3C)C4)nc2c(N2C3CCC2CC3)n1 (stereo not shown) [Compound 238]	≥ 100 nM	< 10 nM
C[C@@H](O)c1cc2cnc(Nc3ccc4c(n3)CCN(C(=O)C3CN(C)C3)C4)nc2c(N2C3CCC2CC3)n1 [Compound 239]	≥ 100 nM	< 10 nM
Cc1nc(Nc2ncc3cc([C@@H](C)O)nc(N4C5CCC4CC5)c3n2)ccc1N1CCN(C)CC1 [Compound 185]	≥ 100 nM	< 10 nM
CC(O)c1cc2cnc(Nc3ccc(CN4CCN(C)CC4)cn3)nc2c(N2C3CCCC2CC3)n1 (stereo not shown) [Compound 174]	≥ 100 nM	< 10 nM
CC(O)c1cc2cnc(Nc3ccc4c(n3)CC3CCC4N3CCO)nc2c(N2CCCCC2)n1 (stereo not shown) [Compound 280]	≥ 100 nM	10 to 100 nM
C[C@@H](O)c1cc2cnc(Nc3ccc4c(n3)CCNC4)nc2c(N2CCCCC2)n1 [Compound 62]	≥ 100 nM	< 10 nM
C[C@@H](O)c1cc2cnc(Nc3ccc4c(n3)CCN(CCO)C4)nc2c(N2CCC(C#N)CC2)n1 [Compound 278]	≥ 100 nM	< 10 nM
C[C@@H](O)c1cc2cnc(Nc3ccc(C(=O)N4CCS(=O)(=O)CC4)cn3)nc2c(N2CCCCC2)n1 [Compound 314]	≥ 100 nM	< 10 nM
C[C@@H](O)c1cc2cnc(Nc3ccc(O[C@H]4CCCNC4)cn3)nc2c(N2CC[C@@H](F)C2)n1 [Compound 250]	≥ 100 nM	< 10 nM
C[C@@H](O)c1cc2cnc(Nc3ccc(CN4CCN(CCO)CC4)cn3)nc2c(N2C3CCC2CC3)n1 [Compound 103]	≥ 100 nM	< 10 nM
C[C@@H](O)c1cc2cnc(Nc3ccc4c(n3)CCN(C(=O)CN3CC5(CN(C)C5)C3)C4)nc2c(N2C3CCC2CC3)n1 [Compound 265]	≥ 100 nM	< 10 nM
C[C@@H](O)c1cc2cnc(Nc3ccc4c(n3)CCN(CCCO)C4)nc2c(N2CCCCC2)n1 [Compound 130]	≥ 100 nM	< 10 nM
c1cc(N2CCNCC2)nnc1Nc1ncc2cc(C3CCOC3)nc(N3CCCCC3)c2n1 (stereo not shown) [Compound 208]	≥ 100 nM	< 10 nM
CN1CCN(c2ccc(Nc3ncc4cc(CO)nc(-c5ccccc5)c4n3)nc2)CC1 [Compound 6]	≥ 100 nM	< 10 nM
CC(=O)c1cc2cnc(Nc3ccc(N4CCNCC4)cn3)nc2c(N2CCCCC2)n1 [Compound 26]	≥ 100 nM	10 to 100 nM
C[C@@H](O)c1cc2cnc(Nc3ccc4c(n3)CCN(C(=O)CN3CCC3)C4)nc2c(N2C3CCC2CC3)n1 [Compound 230]	≥ 100 nM	< 10 nM
C[C@@H](O)c1cc2cnc(Nc3ccc4c(n3)CCN(C(=O)[C@H]3CCCN3)C4)nc2c(N2CCCCC2)n1 [Compound 209]	≥ 100 nM	< 10 nM
OCc1cc2cnc(Nc3ccc(CN4CCNCC4)cn3)nc2c(N2CCCCC2)n1 [Compound 108]	≥ 100 nM	< 10 nM
C[C@@H](O)c1cc2cnc(Nc3ccc(CN4CCN(CCO)CC4)cn3)nc2c(N2CCCOCC2)n1 [Compound 178]	≥ 100 nM	< 10 nM
CNC(=O)c1cc2cnc(Nc3ccc(N4CCNCC4)cn3)nc2c(N2CCCCC2)n1 [Compound 29]	≥ 100 nM	10 to 100 nM
C[C@@H](O)c1cc2cnc(Nc3ccc(CN4CCN(CCO)CC4)cn3)nc2c(N2CCC(C(F)(F)F)CC2)n1 [Compound 84]	≥ 100 nM	< 10 nM
C[C@@H](O)c1cc2cnc(Nc3ccc(CN4CCN(CCO)CC4)cn3)nc2c(N2CC[C@H](F)C2)n1 [Compound 181]	≥ 100 nM	10 to 100 nM

Second part, the compound after the results:

IC50 (CDK2/cyclin A2)	IC50 (CDK4/cyclin D3)	Structure (SMILES)
≥ 100 nM	10 to 100 nM	CO[C@H](C)c1cc2cnc(Nc3ccc(N4CCN(C)CC4)nn3)nc2c(N2CCC(F)CC2)n1 [Compound 125]
≥ 100 nM	10 to 100 nM	CN1CCN(c2ccc(Nc3ncc4cc(C(F)F)nc(N5CCOCC5)c4n3)nc2)CC1 [Compound 4]
≥ 100 nM	< 10 nM	C[C@@H](O)c1cc2cnc(Nc3ccc4c(n3)CCN(C3COC3)C4)nc2c(N2CCCCC2)n1 [Compound 161]
≥ 100 nM	< 10 nM	C[C@@H](O)c1cc2cnc(Nc3ccc(O[C@H]4CCCN(CCO)C4)cn3)nc2c(N2CCCCC2)n1 [Compound 252]
≥ 100 nM	10 to 100 nM	C[C@@H](O)c1cc2cnc(Nc3ccc(CN4CCN(C)CC4)cn3)nc2c(N2CCC[C@@H]2C)n1 [Compound 137]
≥ 100 nM	< 10 nM	CCN1CCN(Cc2ccc(Nc3ncc4cc([C@@H](C)O)nc(N5CCCCC5)c4n3)nc2)CC1 [Compound 122]
≥ 100 nM	< 10 nM	CC(O)c1cc2cnc(Nc3ccc(CN4CCN(CCO)CC4)cn3)nc2c(N2CC(C)C(C)C2)n1 (stereo not shown) [Compound 113]
10 to 100 nM	< 10 nM	C[C@@H](O)c1cc2cnc(Nc3ccc(C(=O)N4CCCN(C)CC4)cn3)nc2c(N2CCCCC2)n1 [Compound 304]
≥ 100 nM	< 10 nM	CO[C@H](C)c1cc2cnc(Nc3ccc(N4CCNCC4)nn3)nc2c(N2CCC(F)CC2)n1 [Compound 126]
≥ 100 nM	< 10 nM	OCCN1CCN(Cc2ccc(Nc3ncc4cc(C(F)F)nc(N5CCC(O)CC5)c4n3)nc2)CC1 [Compound 129]
≥ 100 nM	< 10 nM	C[C@@H](O)c1cc2cnc(Nc3ccc4c(n3)CCN(C(=O)[C@H]3CCCCN3)C4)nc2c(N2CCCCC2)n1 [Compound 211]
≥ 100 nM	< 10 nM	OCc1cc2cnc(Nc3ccc(N4CCNCC4)cn3)nc2c(N2CCOCC2)n1 [Compound 7]
≥ 100 nM	< 10 nM	C[C@@H](O)c1cc2cnc(Nc3ccc(CN4CCC(CO)CC4)cn3)nc2c(N2CCCCC2)n1 [Compound 68]
≥ 100 nM	10 to 100 nM	C[C@@H](O)c1cc2cnc(Nc3ccc4c(n3)CCN(C(=O)Cc3ccccn3)C4)nc2c(N2CCCCC2)n1 [Compound 335]
≥ 100 nM	< 10 nM	C[C@@H](O)c1cc2cnc(Nc3ccc(OC4CCN(CCO)CC4)cn3)nc2c(N2CCC[C@H](F)C2)n1 [Compound 222]
≥ 100 nM	10 to 100 nM	FC(F)c1cc2cnc(Nc3ccc(N4CCNCC4)cn3)nc2c(N2CCOCC2)n1 [Compound 8]

IC50 (CDK2/cyclin A2)	IC50 (CDK4/cyclin D3)	Structure (SMILES)
≥ 100 nM	< 10 nM	C[C@@H](O)c1cc2cnc(Nc3ccc(N4CCCNCC4=O)cn3)nc2c(N2CCCCC2)n1 [Compound 127]
≥ 100 nM	10 to 100 nM	C[C@@H](O)c1cc2cnc(Nc3ccc(CN4CCC(O)CC4)cn3)nc2c(N2CCOCC2)n1 [Compound 67]
≥ 100 nM	10 to 100 nM	C[C@@H](O)c1cc2cnc(Nc3ccc(CN4CCN(CCO)CC4)cn3)nc2c(N2CCOCC2)n1 [Compound 58]
≥ 100 nM	10 to 100 nM	OC(c1cc2cnc(Nc3ccc(N4CCNCC4)cn3)nc2c(N2CCOCC2)n1)C(F)(F)F (stereo not shown) [Compound 35, 2,2,2-trifluoro-1-(8-morpholino-2-((5-(piperazin-1-yl)pyridin-2-yl)amino)pyrido[3,4-d]pyrimidin-6-yl)ethanol]
≥ 100 nM	< 10 nM	Cc1nc(Nc2ncc3cc([C@@H](C)O)nc(N4CCCC4)c3n2)ccc1N1CCNCC1 [Compound 86]
≥ 100 nM	< 10 nM	C[C@@H](O)c1cc2cnc(Nc3ccc(N4CCN(CCO)CCC4=O)cn3)nc2c(N2CCCCC2)n1 [Compound 151]
≥ 100 nM	< 10 nM	CC[C@@H](O)c1cc2cnc(Nc3ccc(N4CCNCC4=O)cn3)nc2c(N2CCC[C@H]2C)n1 [Compound 245]
≥ 100 nM	< 10 nM	CC1CCC(C)N1c1nc([C@@H](C)O)cc2cnc(Nc3ccc(CN4CCN(CCO)CC4)cn3)nc12 (stereo partly shown) [Compound 101]
≥ 100 nM	< 10 nM	C[C@@H](O)c1cc2cnc(Nc3ccc(C(=O)N4CC[C@H](N(C)C)C4)cn3)nc2c(N2CCCCC2)n1 [Compound 313]
≥ 100 nM	< 10 nM	C[C@@H](O)c1cc2cnc(Nc3ccc(CN4CCN(CCO)CC4)cn3)nc2c(N2CCC[C@H](F)C2)n1 [Compound 180]
≥ 100 nM	< 10 nM	C[C@@H](O)c1cc2cnc(Nc3ccc4c(n3)CCN(CCN3CCOCC3)C4)nc2c(N2CCCCC2)n1 [Compound 162]
≥ 100 nM	< 10 nM	C[C@@H](O)c1cc2cnc(Nc3ccc4c(n3)CCN(C3CN(CCO)C3)C4)nc2c(N2CCCCC2)n1 [Compound 176]
≥ 100 nM	< 10 nM	C[C@@H](O)c1cc2cnc(Nc3ccc(CN4CCN(CCO)CC4)cn3)nc2c(N2CCC(F)(F)CC2)n1 [Compound 79]
≥ 100 nM	< 10 nM	C[C@@H](O)c1cc2cnc(Nc3ccc(C(=O)N4CCN(C)CC4)cn3)nc2c(N2CCCCC2)n1 [Compound 309]
≥ 100 nM	< 10 nM	C[C@@H](O)c1cc2cnc(Nc3ccc(CN4CCN(CCO)CC4)cn3)nc2c(N2CCC(F)CC2)n1 [Compound 78]
10 to 100 nM	< 10 nM	C[C@@H](O)c1cc2cnc(Nc3ccc(C(=O)N4CCN(C)CC4)cn3)nc2c(N2CCCCCC2)n1 [Compound 319]

— US11084814B2, “Pyrido[3, 4-d]pyrimidine derivative and pharmaceutically acceptable salt thereof” (Teijin Pharma Limited, priority 2016, dated 2021)
